Source: patent publication US10770169B2, “Method of providing a treatment to a subject based on a dynamic pathway map” (THE REGENTS OF THE UNIVERSITY OF CALIFORNIA, priority 2010, dated 2020)
Read-outs that look alike come from different tables or passages of the source.

Legend:
[1] = tested on: luminal, basal, claudin-low and ERBB2AMP breast cancer cell lines; experiment: Associations of clinically relevant subtypes and response (non-parametric ANOVA or t-test on GI50 ranks); format: cell-based, human; details: Table 6; most sensitive subtype, FDR p<0.20
In short: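 GI50 values were compared between cell-line subtype groups by non-parametric ANOVA or t-test on ranks. P-values from three test sets were combined and FDR-corrected. Significant three-group effects were followed by post-hoc comparison of each group against all others, and FDR p<0.20 counted as significant.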

[2] = tested on: panel of 55 breast cancer cell lines; experiment: Cell growth inhibition assay (Cell Titer Glo, 72 h, 9 doses; GI50, TGI, LC50); format: cell-based, human

With `NC(=O)Nc1sc(-c2ccc(F)cc2)cc1C(N)=O` [TPCA-1] the Subtype specificity [1] was “Basal + Claudin-low”, the GI50 ([2]; BT20 cell line, censored GI50 values, value is the negative log10 of mol/L) was 4.36 and the GI50 ([2]; HCC38 cell line, censored GI50 values, value is the negative log10 of mol/L) was 5.50. It also gave a GI50 ([2]; HCC70 cell line, censored GI50 values, value is the negative log10 of mol/L) of 5.44, a GI50 ([2]; HCC1143 cell line, censored GI50 values, value is the negative log10 of mol/L) of 5.07 and a GI50 ([2]; HCC1187 cell line, censored GI50 values, value is the negative log10 of mol/L) of 5.67. It also gave a GI50 ([2]; HCC1395 cell line, censored GI50 values, value is the negative log10 of mol/L) of 5.22, a GI50 ([2]; HCC1419 cell line, censored GI50 values, value is the negative log10 of mol/L) of 5.53 and a GI50 ([2]; HCC1428 cell line, censored GI50 values, value is the negative log10 of mol/L) of 5.45. For the same molecule, the GI50 ([2]; HCC1500 cell line, censored GI50 values, value is the negative log10 of mol/L) was 5.39, the GI50 ([2]; HCC1806 cell line, censored GI50 values, value is the negative log10 of mol/L) was 5.34 and the GI50 ([2]; HCC1954 cell line, censored GI50 values, value is the negative log10 of mol/L) was 4.77. The GI50 ([2]; HCC2185 cell line, censored GI50 values, value is the negative log10 of mol/L) was 5.36, the GI50 ([2]; HCC3153 cell line, censored GI50 values, value is the negative log10 of mol/L) was 4.87 and the GI50 ([2]; LY2 cell line, censored GI50 values, value is the negative log10 of mol/L) was 4.54. It also gave a GI50 ([2]; MDAMB134VI cell line, censored GI50 values, value is the negative log10 of mol/L) of 4.79, a GI50 ([2]; MDAMB231 cell line, censored GI50 values, value is the negative log10 of mol/L) of 4.45 and a GI50 ([2]; MDAMB361 cell line, censored GI50 values, value is the negative log10 of mol/L) of 4.18. It also gave a GI50 ([2]; MDAMB436 cell line, censored GI50 values, value is the negative log10 of mol/L) of 5.16, a GI50 ([2]; MDAMB468 cell line, censored GI50 values, value is the negative log10 of mol/L) of 5.94 and a GI50 ([2]; SUM52PE cell line, censored GI50 values, value is the negative log10 of mol/L) of 6.25. It also gave a GI50 ([2]; SUM149PT cell line, censored GI50 values, value is the negative log10 of mol/L) of 5.78, a GI50 ([2]; SUM159PT cell line, censored GI50 values, value is the negative log10 of mol/L) of 5.81 and a GI50 ([2]; SUM1315MO2 cell line, censored GI50 values, value is the negative log10 of mol/L) of 6.09. It also gave a GI50 ([2]; UACC893 cell line, censored GI50 values, value is the negative log10 of mol/L) of 5.21, a GI50 ([2]; cell line 600MPE, value is the negative log10 of mol/L) of 4.18 and a GI50 ([2]; cell line AU565, value is the negative log10 of mol/L) of 4.18. It also gave a GI50 ([2]; cell line BT20, value is the negative log10 of mol/L) of 4.36, a GI50 ([2]; cell line BT474, value is the negative log10 of mol/L) of 4.18 and a GI50 ([2]; cell line BT549, value is the negative log10 of mol/L) of 4.18. The GI50 ([2]; cell line HCC38, value is the negative log10 of mol/L) was 5.50, the GI50 ([2]; cell line HCC70, value is the negative log10 of mol/L) was 5.44 and the GI50 ([2]; cell line HCC202, value is the negative log10 of mol/L) was 3.88. The GI50 ([2]; cell line HCC1143, value is the negative log10 of mol/L) was 5.07, the GI50 ([2]; cell line HCC1187, value is the negative log10 of mol/L) was 5.67 and the GI50 ([2]; cell line HCC1395, value is the negative log10 of mol/L) was 5.22. The GI50 ([2]; cell line HCC1419, value is the negative log10 of mol/L) was 5.53, the GI50 ([2]; cell line HCC1428, value is the negative log10 of mol/L) was 5.45 and the GI50 ([2]; cell line HCC1500, value is the negative log10 of mol/L) was 5.39. It also gave a GI50 ([2]; cell line HCC1806, value is the negative log10 of mol/L) of 5.34, a GI50 ([2]; cell line HCC1937, value is the negative log10 of mol/L) of 4.18 and a GI50 ([2]; cell line HCC1954, value is the negative log10 of mol/L) of 4.77. It also gave a GI50 ([2]; cell line HCC2185, value is the negative log10 of mol/L) of 5.36, a GI50 ([2]; cell line HCC3153, value is the negative log10 of mol/L) of 4.87 and a GI50 ([2]; cell line LY2, value is the negative log10 of mol/L) of 4.54.
In the case of `CC/C(=C(\c1ccccc1)c1ccc(OCCN(C)C)cc1)c1ccccc1` [Tamoxifen], the Subtype specificity [1] is reported as “Luminal”, the GI50 ([2]; Homo sapiens, 600MPE cell line, censored GI50 values, read-out: GI50 (converted)) is reported as 47.9 µM and the GI50 ([2]; Homo sapiens, AU565, AU565 cell line, censored GI50 values, read-out: GI50 (converted)) is reported as 28.8 µM. For the same molecule, the GI50 ([2]; Homo sapiens, AU565, cell line AU565, read-out: GI50 (converted)) was 28.8 µM, the GI50 ([2]; Homo sapiens, BT-474, BT474 cell line, censored GI50 values, read-out: GI50 (converted)) was 2.4 µM and the GI50 ([2]; Homo sapiens, BT-474, cell line BT474, read-out: GI50 (converted)) was 2.4 µM. For the same molecule, the GI50 ([2]; Homo sapiens, BT-483, BT483 cell line, censored GI50 values, read-out: GI50 (converted)) was 24 µM, the GI50 ([2]; Homo sapiens, BT-483, cell line BT483, read-out: GI50 (converted)) was 24 µM and the GI50 ([2]; Homo sapiens, BT-549, cell line BT549, read-out: GI50 (converted)) was 166 µM. It also gave a GI50 ([2]; Homo sapiens, CAMA-1, CAMA1 cell line, censored GI50 values, read-out: GI50 (converted)) of 34.7 µM, a GI50 ([2]; Homo sapiens, CAMA-1, cell line CAMA1, read-out: GI50 (converted)) of 34.7 µM and a GI50 ([2]; Homo sapiens, HCC38, HCC38 cell line, censored GI50 values, read-out: GI50 (converted)) of 52.5 µM. For the same molecule, the GI50 ([2]; Homo sapiens, HCC38, cell line HCC38, read-out: GI50 (converted)) was 52.5 µM, the GI50 ([2]; Homo sapiens, HCC70, cell line HCC70, read-out: GI50 (converted)) was 166 µM and the GI50 ([2]; Homo sapiens, HCC202, HCC202 cell line, censored GI50 values, read-out: GI50 (converted)) was 29.5 µM. It also gave a GI50 ([2]; Homo sapiens, HCC202, cell line HCC202, read-out: GI50 (converted)) of 29.5 µM, a GI50 ([2]; Homo sapiens, HCC1143, HCC1143 cell line, censored GI50 values, read-out: GI50 (converted)) of 16.2 µM and a GI50 ([2]; Homo sapiens, HCC1143, cell line HCC1143, read-out: GI50 (converted)) of 16.2 µM. The GI50 ([2]; Homo sapiens, HCC1395, HCC1395 cell line, censored GI50 values, read-out: GI50 (converted)) was 14.5 µM, the GI50 ([2]; Homo sapiens, HCC1395, cell line HCC1395, read-out: GI50 (converted)) was 14.5 µM and the GI50 ([2]; Homo sapiens, HCC1419, HCC1419 cell line, censored GI50 values, read-out: GI50 (converted)) was 33.1 µM. The GI50 ([2]; Homo sapiens, HCC1419, cell line HCC1419, read-out: GI50 (converted)) was 33.1 µM, the GI50 ([2]; Homo sapiens, HCC1428, HCC1428 cell line, censored GI50 values, read-out: GI50 (converted)) was 3.24 µM and the GI50 ([2]; Homo sapiens, HCC1428, cell line HCC1428, read-out: GI50 (converted)) was 3.24 µM. It also gave a GI50 ([2]; Homo sapiens, HCC1500, HCC1500 cell line, censored GI50 values, read-out: GI50 (converted)) of 105 µM, a GI50 ([2]; Homo sapiens, HCC1500, cell line HCC1500, read-out: GI50 (converted)) of 105 µM and a GI50 ([2]; Homo sapiens, HCC1806, HCC1806 cell line, censored GI50 values, read-out: GI50 (converted)) of 13.2 µM. It also gave a GI50 ([2]; Homo sapiens, HCC1806, cell line HCC1806, read-out: GI50 (converted)) of 13.2 µM, a GI50 ([2]; Homo sapiens, HCC1937, cell line HCC1937, read-out: GI50 (converted)) of 166 µM and a GI50 ([2]; Homo sapiens, HCC1954, HCC1954 cell line, censored GI50 values, read-out: GI50 (converted)) of 97.7 µM. For the same molecule, the GI50 ([2]; Homo sapiens, HCC1954, cell line HCC1954, read-out: GI50 (converted)) was 97.7 µM, the GI50 ([2]; Homo sapiens, HCC2185 cell line, censored GI50 values, read-out: GI50 (converted)) was 14.1 µM and the GI50 ([2]; Homo sapiens, LY2 cell line, censored GI50 values, read-out: GI50 (converted)) was 56.2 µM. It also gave a GI50 ([2]; Homo sapiens, MCF7, MCF7 cell line, censored GI50 values, read-out: GI50 (converted)) of 102 µM, a GI50 ([2]; Homo sapiens, MCF7, cell line MCF7, read-out: GI50 (converted)) of 102 µM and a GI50 ([2]; Homo sapiens, MDA-MB-134-VI, MDAMB134VI cell line, censored GI50 values, read-out: GI50 (converted)) of 83.2 µM. The GI50 ([2]; Homo sapiens, MDA-MB-175-VII, MDAMB175VII cell line, censored GI50 values, read-out: GI50 (converted)) was 14.5 µM, the GI50 ([2]; Homo sapiens, MDA-MB-415, MDAMB415 cell line, censored GI50 values, read-out: GI50 (converted)) was 33.9 µM and the GI50 ([2]; Homo sapiens, MDA-MB-436, MDAMB436 cell line, censored GI50 values, read-out: GI50 (converted)) was 30.9 µM. The GI50 ([2]; Homo sapiens, MDA-MB-453, MDAMB453 cell line, censored GI50 values, read-out: GI50 (converted)) was 36.3 µM, the GI50 ([2]; Homo sapiens, SK-BR-3, SKBR3 cell line, censored GI50 values, read-out: GI50 (converted)) was 105 µM and the GI50 ([2]; Homo sapiens, SUM52PE, SUM52PE cell line, censored GI50 values, read-out: GI50 (converted)) was 91.2 µM. The GI50 ([2]; Homo sapiens, SUM149PT, SUM149PT cell line, censored GI50 values, read-out: GI50 (converted)) was 102 µM, the GI50 ([2]; Homo sapiens, SUM185PE, SUM185PE cell line, censored GI50 values, read-out: GI50 (converted)) was 8.91 µM and the GI50 ([2]; Homo sapiens, SUM1315MO2, SUM1315MO2 cell line, censored GI50 values, read-out: GI50 (converted)) was 100 µM. The GI50 ([2]; Homo sapiens, UACC-893, UACC893 cell line, censored GI50 values, read-out: GI50 (converted)) was 3.09 µM, the GI50 ([2]; Homo sapiens, ZR-75B, ZR75B cell line, censored GI50 values, read-out: GI50 (converted)) was 16.2 µM and the GI50 ([2]; Homo sapiens, cell line 600MPE, read-out: GI50 (converted)) was 47.9 µM. For the same molecule, the GI50 ([2]; Homo sapiens, cell line HCC2185, read-out: GI50 (converted)) was 14.1 µM, the GI50 ([2]; Homo sapiens, cell line HCC3153, read-out: GI50 (converted)) was 166 µM and the GI50 ([2]; Homo sapiens, cell line LY2, read-out: GI50 (converted)) was 56.2 µM.
